Reference: patent US20220326218A1, “COMPOSITION AND METHOD FOR INHIBITING BORC COMPLEX TO TREAT CANCERS WITH NF1 DEFICIENCY AND DYSREGULATED RAS SIGNALING” (THE TRUSTEES OF DARTMOUTH COLLEGE, priority 2019, published 2022)

Experiments:
proteasomal active sites = target: T1, proteasomal active sites (Homo sapiens, UniProt P28072+P28074+Q99436); assay: MV-151 proteasome active site inhibition assay; assay type: cell-based; settings: U87-MG; Y102 2 μM 24 h; positive control 1 μM Bortezomib and 10 μM MG-132 2 h
T1 construct: endogenous in cells; host or cells: U87-MG
Description: U87-MG cells were plated at 500,000 cells/well in 6-well plates and allowed to adhere overnight (Falcon). Medium was removed and replaced with fresh medium containing Y102 or vehicle DMSO and treated for 24 h. As a positive control, one well was treated for 2 h with 1 μM Bz/10 μM MG-132.
Cells were collected after treatment by washing with PBS, harvested with trypsin plus agitation to detach cells, spun down in a centrifuge, and resuspended in PBS to wash. Cells were transferred to 1.5 mL microcentrifuge tubes, pelleted, and resuspended in 20 μL digitonin lysis buffer (50 mM Tris HCl pH 7.5, 250 mM sucrose, 2 mM EDTA, 1 mM ATP, 1 mM DTT, and 0.05% digitonin). Cells were mixed by pipetting, incubated on ice for 20 minutes, and the lysate was cleared by centrifugation. Protein concentrations were determined using a Bradford protein assay (Bio-Rad). 10 μg of protein lysate was incubated for 20 minutes with 20 μM MV-151 in a 37° C. water bath. 4× loading dye was added to the samples and proteins were separated by sodium dodecyl sulfate-polyacrylamide gel electrophoresis (SDS-PAGE) on a 4-15% polyacrylamide gradient gel (Bio-Rad). Gel was imaged on a Typhoon scanner at an excitation of 532 nm and an emission of 560 nm to detect MV-151 fluorescence. Following imaging, proteins were transferred to nitrocellulose. The blot was probed for α-Tubulin as a loading control. […]

mitochondria = assay: MitoTracker Red CMXRos staining of the mitochondrial network; assay type: cell-based, human; settings: U87-MG, 24 h; 2 μM Y102, 50 μM HCQ
Description: For MitoTracker Red CMXRos staining, 30 minutes prior to collection medium was removed and replaced with medium containing MitoTracker Red CMXRos at a final concentration of 100 nM (Molecular Probes). Following staining, cells were washed with PBS and fixed with 4% paraformaldehyde without methanol. Cells were washed with PBST, then permeabilized with 0.5% Triton X-100 in PBS. When co-staining with another marker, the staining procedure continued with the blocking step; otherwise, cells were stained with 0.33 μg/mL DAPI in PBS and mounted onto slides in ProLong Gold (Life Technologies).

PARP = assay: Western immunoblotting for PARP; assay type: cell-based, human; settings: U87-MG
Description: U87-MG cells were plated at 500,000 cells/well in 6-well plates and allowed to adhere overnight (Falcon). Medium was removed and replaced with fresh medium containing drugs or compounds for the indicated timepoints. Cells were collected after treatment by washing with PBS, harvested with trypsin plus agitation to detach cells, pelleted in a centrifuge and resuspended in PBS to wash. Cells were transferred to 1.5 mL microcentrifuge tubes, pelleted, and resuspended in RIPA lysis buffer (50 mM Tris pH 8.0, 150 mM NaCl, 1% nonidet P40, 0.5% sodium deoxycholate, and 0.05% SDS) containing 1 mM NaVO4, 1 mM NaF, 1 mM phenylmethylsulfonyl fluoride, 0.1 μg/mL antipain, 1 μM aprotinin, 100 μM benzamidine HCl, 0.1 μg/mL leupeptin, 0.1 μg/mL pepstatin, and 0.1 μg/mL soybean trypsin inhibitor. Protein was quantified using a BCA assay kit (Pierce). 50 μg of protein was prepared in 1× Laemmli sample buffer (50 mM Tris pH 6.8, 0.02% w/v bromophenol blue, 2% w/v SDS, 10% v/v glycerol, 1% v/v beta-mercaptoethanol, 12.5 mM EDTA) and separated by SDS-PAGE on a 4-15% polyacrylamide gradient gel (Bio-Rad). […]

sNF96.2 cells = assay: Hoechst cell death viability assay, sNF96.2; assay type: cell-based, human; settings: sNF96.2 MPNST cells, up to 3 days, 100 μM to 0.039 μM, Hoechst 33258
Description: Cells were plated at 2,500 cells/well in 96-well plates and allowed to adhere overnight. Medium was removed and replaced with media containing compound starting at 100 μM, followed by 2-fold serial dilutions to generate a 10-point range of concentrations normalized with DMSO; one row was treated with DMSO as a control. Cells were incubated for the indicated timepoints. Upon collection, media was removed, cells were rinsed with PBS, and stored at −80° C. until all plates were collected. To process cells, plates were thawed with PBS, incubated with 1× saline-sodium citrate (SSC) buffer with 0.02% sodium dodecyl sulfate (SDS) for 1 hour at 37° C., followed by staining with 1 μg/mL Hoechst 33258 (Pierce). […] using a Spectramax M2 at an excitation of 355 nm and an emission of 460 nm, and absorbance was normalized to DMSO. Each experiment was repeated 2-3 times with 4 technical replicates per experiment.

## Cn1cnnc1S/C=C/C(=O)c1ccc(F)cc1 [Y102]
Proteasomal active sites
  inhibition of the proteasomal subunits (MV-151 competitive binding): not
mitochondria
  mitochondrial phenotype (perinuclear clustering): perinuclear clustering of the mitochondria
PARP
  PARP western immunoblotting as check of absent caspase-3-mediated apoptosis: confirmed
sNF96.2 cells
  sensitivity of NF1-deficient cell line to treatment: sensitive
